Drawing on ChEMBL document CHEMBL5154828 (J Med Chem, 2022), this text covers IC50 and EC50 for 45 compounds.

One experiment relates to MCF7. Description: Antiproliferative activity against human MCF7 cells assessed as inhibition of cell growth measured after 6 days by cell titre glo luminescence assay. As to conditions: MCF7, 144 h.
Experiment [1] addresses T1, Estrogen receptor (Homo sapiens, UniProt P03372).
T1 sequence (P03372 whole entry): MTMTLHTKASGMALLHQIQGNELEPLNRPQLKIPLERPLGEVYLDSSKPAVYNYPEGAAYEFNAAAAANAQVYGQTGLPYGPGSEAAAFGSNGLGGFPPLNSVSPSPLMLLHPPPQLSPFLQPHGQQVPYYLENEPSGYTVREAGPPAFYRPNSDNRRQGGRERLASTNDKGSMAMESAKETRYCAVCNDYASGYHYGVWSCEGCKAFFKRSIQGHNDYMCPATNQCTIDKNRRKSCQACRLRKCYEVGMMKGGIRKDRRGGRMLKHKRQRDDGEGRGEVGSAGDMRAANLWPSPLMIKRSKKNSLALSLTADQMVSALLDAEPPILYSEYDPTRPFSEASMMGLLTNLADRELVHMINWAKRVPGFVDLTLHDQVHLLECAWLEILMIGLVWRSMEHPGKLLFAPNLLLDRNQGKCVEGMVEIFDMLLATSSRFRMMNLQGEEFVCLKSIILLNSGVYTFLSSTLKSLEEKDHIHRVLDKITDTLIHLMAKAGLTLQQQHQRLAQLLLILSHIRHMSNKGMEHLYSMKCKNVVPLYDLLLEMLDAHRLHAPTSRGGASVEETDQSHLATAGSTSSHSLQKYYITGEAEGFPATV
The experiment is described as follows: Antagonist activity at ERalpha expressed in HEK293/Gal4 cells incubated for 24 hrs in presence of estradiol by luciferase reporter gene assay. The experiment is classed as cell-based. A general note: A reporter such as luciferase makes a cellular process visible.

Experiment [2] concerns the target T1, Estrogen receptor. Description: Induction of ERalpha degradation in human MCF7 cells incubated for 24 hrs by Western blot analysis. It counts as cell-based. Background: Immunoblotting shows a protein as a band on a membrane.

As for `CC(F)(F)c1cc(F)ccc1-c1sc2c(ccc3[nH]ncc32)c1Oc1c(F)cc(OCCN2CC(CF)C2)cc1F`, the IC50 in the experiment on MCF7 is 15.1 nM.
With `CC(F)(F)c1cc(F)ccc1-c1sc2c(ccc3[nH]ncc32)c1Oc1ccc(CCN2CC(CF)C2)cc1`, the IC50 in the experiment with MCF7 was found to be 14.7 nM.
As for `CC(F)(F)c1cc(F)ccc1-c1sc2cc(B(O)O)ccc2c1Oc1ccc(OCCN2CC(CC#N)C2)cc1`, the IC50 with MCF7 turned out to be 2.7 nM.
Take `FCCCN1CC(Nc2ccc(Oc3c(-c4ccc(F)cc4CC(F)(F)F)sc4c3ccc3[nH]ncc34)cc2)C1`: the IC50 on Estrogen receptor [1] was 1.3 nM; in the experiment on MCF7 it was 0.8 nM. The midpoint of the response on Estrogen receptor [2], the EC50, lay at 2.2 nM.
For the compound `CC(F)(F)c1cc(F)ccc1-c1sc2c(ccc3[nH]ncc32)c1Oc1ccc(OCCN2CC(CF)C2)cc1F`, the IC50 in the experiment with MCF7 stood at 3.3 nM.
Consider `CC(F)(F)c1cc(F)c(F)cc1-c1sc2c(ccc3[nH]ncc32)c1Oc1ccc(OC2CN(CCCF)C2)cc1`, for which the results for the IC50 on Estrogen receptor [1] and with MCF7 were 2.5 nM and 1.6 nM, respectively. Moreover, a half-maximal response at Estrogen receptor [2] (EC50) required 3.4 nM.
As to `COc1cc(Oc2c(-c3cc(F)c(F)cc3C(C)(F)F)sc3c2ccc2[nH]ncc23)ccc1OC1CN(CCCF)C1`, the IC50 on Estrogen receptor [1] turned out to be 1.4 nM; with MCF7, 1.2 nM. The EC50 at Estrogen receptor [2] turned out to be 3 nM.
With `CC(F)(F)c1cc(F)ccc1-c1sc2cc(B(O)O)ccc2c1Oc1ccc(/C=C/C(=O)O)cc1`, the IC50 in the experiment with MCF7 turned out to be 23.9 nM.
On to `CC(F)(F)c1cc(F)ccc1-c1sc2c(ccc3[nH]ncc32)c1Oc1ccc(OCCN2CC(CF)C2)cc1`, for which, on Estrogen receptor [2], the midpoint of the response, the EC50, lay at 0.9 nM. Also, in the experiment on MCF7, the IC50 amounted to 1.1 nM.
The compound `CC(F)(F)c1cc(Cl)ccc1-c1sc2cc(C(=O)O)ccc2c1Oc1ccc(OC2CN(CCCF)C2)cc1` showed an EC50 at Estrogen receptor [2] of 3.9 nM. In addition, the IC50 in the experiment with MCF7 was found to be 34.7 nM.
Turning to `CC(F)(F)c1cc(F)ccc1-c1sc2cc(B(O)O)ccc2c1Oc1ccc(OCCN2CCC(F)CC2)cc1`, in the experiment with MCF7, the IC50 worked out at 19.4 nM.
Same read-out and setting: the same measure for `FCC1CN(CCOc2ccc(Oc3c(-c4ccc(F)cc4C4CC4)sc4c3ccc3[nH]ncc34)cc2)C1`: 8.8 nM.
On Estrogen receptor [2], `CC(F)(F)c1cc(F)ccc1-c1sc2cc(B(O)O)ccc2c1Oc1ccc(OCCN2CC[C@@H](CF)C2)cc1` had an EC50 of 2.2 nM. The IC50 in the experiment on MCF7 came out at 1.5 nM.
Turning to `CC(F)(F)c1cc(Cl)ccc1-c1sc2c(ccc3[nH]ncc32)c1Oc1ccc(OC2CN(CCCC#N)C2)cc1`, the IC50 in the experiment with MCF7 amounted to 81.4 nM.
In the case of `CC(F)(F)c1cc(Cl)ccc1-c1sc2cc(C(=O)O)ccc2c1Oc1ccc(NC2CN(CCCF)C2)cc1`, a half-maximal effect on Estrogen receptor [2] (EC50) was put at 13.1 nM. Moreover, the IC50 with MCF7 stood at 5.9 nM.
Turning to `COc1cc(Oc2c(-c3ccc(F)cc3CC(F)(F)F)sc3c2ccc2[nH]ncc23)ccc1OC1CN(CCCF)C1`, the IC50 came out at 0.9 nM at Estrogen receptor [1] and 0.6 nM in the experiment with MCF7. On Estrogen receptor [2], this compound showed an EC50 of 1.8 nM.
`Cc1cc(F)cc(C)c1-c1sc2c(ccc3[nH]ncc32)c1Oc1ccc(OCCN2CC(CF)C2)cc1`: in the experiment on MCF7, the IC50 was found to be 27.3 nM.
Turning to `CC(F)(F)c1cc(F)ccc1-c1sc2c(ccc3[nH]ncc32)c1Oc1ccc(OC2CN(CCCF)C2)c(F)c1`, the IC50 on Estrogen receptor [1] amounted to 1 nM; in the experiment with MCF7, 0.8 nM. The compound further returned an EC50 on Estrogen receptor [2] of 1.3 nM.
For `FCCCN1CC(Oc2ccc(Oc3c(-c4ccc(F)cc4C4(F)CC4)sc4c3ccc3[nH]ncc34)cc2)C1`, the IC50 in the experiment with MCF7 came to 5.3 nM.
`CC(F)(F)c1cc(Cl)ccc1-c1sc2c(ccc3[nH]ncc32)c1Oc1ccc(O[C@@H]2CCN(CCCF)C2)cc1`: the EC50 on Estrogen receptor [2] was 0.7 nM. Also, the IC50 with MCF7 was determined as 2.6 nM.
For the compound `CC(F)(F)c1cc(Cl)ccc1-c1sc2c(ccc3[nH]ncc32)c1Oc1ccc(OC[C@H]2CCCN2CCCF)cc1`, the concentration for a half-maximal effect (EC50) on Estrogen receptor [2] is > 1000 nM. In the experiment on MCF7, the IC50 stood at 8.3 nM.
For `Cc1cc(C(F)(F)F)ncc1-c1sc2c(ccc3[nH]ncc32)c1Oc1ccc(OCCN2CC(CF)C2)cc1`, in the experiment with MCF7, the IC50 came out at 623 nM.
In turn, `CC(F)(F)c1cc(Cl)ccc1-c1sc2c(ccc3[nH]ncc32)c1Oc1ccc(N[C@@H]2CCN(CCCF)C2)cc1` showed an EC50 at Estrogen receptor [2] of 1 nM. In addition, the IC50 in the experiment with MCF7 amounted to 0.6 nM.
`CC(F)(c1cc(F)ccc1-c1sc2c(ccc3[nH]ncc32)c1Oc1ccc(NC2CN(CCCF)C2)cc1)C(F)(F)F` (stereo not drawn) displayed a 50% effective concentration (EC50) at Estrogen receptor [2] of 6.6 nM. In addition, the IC50 with MCF7 was determined as 1.7 nM.
`CC(F)(F)c1cc(F)ccc1-c1sc2cc(B(O)O)ccc2c1Oc1ccc(OCCN2CC(CF)C2)cc1` showed an EC50 at Estrogen receptor [2] of 1.2 nM. The IC50 in the experiment with MCF7 stood at 1.9 nM.
Taken in the same sequence, the figures for `CC(F)(F)c1cc(F)ccc1-c1sc2c(ccc3[nH]ncc32)c1Oc1ccc(COCCN2CC(CF)C2)cc1` were > 1000 nM and 4.7 nM.
As for `CC(F)(F)c1cc(F)ccc1-c1sc2cc3[nH]ncc3cc2c1Oc1ccc(/C=C/C(=O)O)cc1`, in the experiment with MCF7, the IC50 stood at 483 nM.
Turning to `CC(F)(F)c1cc(F)ccc1-c1sc2c(ccc3[nH]ncc32)c1Oc1ccc(S(=O)(=O)CCN2CC(CF)C2)cc1`, on Estrogen receptor [2], the EC50 was > 1000 nM. Also, the concentration for half-maximal inhibition (IC50) with MCF7 came out at 5.9 nM.
With `CC(C)(c1cc(F)ccc1-c1sc2c(ccc3[nH]ncc32)c1Oc1ccc(NC2CN(CCCF)C2)cc1)C(F)(F)F`, in the experiment with MCF7, the IC50 is 5.1 nM.
For `COc1cc(Oc2c(-c3ccc(F)cc3CC(F)(F)F)sc3c2ccc2[nH]ncc23)ccc1NC1CN(CCCF)C1`, the results for the IC50 on Estrogen receptor [1] and in the experiment with MCF7 were 1.1 nM and 1.7 nM, respectively. In addition, the EC50 at Estrogen receptor [2] worked out at 2.2 nM.
With `CC(F)(F)c1cc(F)ccc1-c1sc2c(ccc3[nH]ncc32)c1Oc1ccc(OCCN2CC3C(C2)C3(F)F)cc1` (stereo not drawn), the EC50 at Estrogen receptor [2] was > 1000 nM. The IC50 with MCF7 is 7.6 nM.
In the case of `CC(F)(F)c1cc(F)ccc1-c1sc2c(ccc3[nH]ncc32)c1Oc1ccc(/C=C/C(=O)O)cc1`, the IC50 with MCF7 was 26.6 nM.
Consider `CC(F)(F)c1cc(F)ccc1-c1sc2c(ccc3[nH]ncc32)c1Oc1ccc(NC2CN(CCCF)C2)c(C(F)(F)F)c1`, for which the IC50 in the experiment with MCF7 turned out to be 6.2 nM.
`Oc1cccc(-c2sc3c(ccc4[nH]ncc43)c2Oc2ccc(OCCN3CC(CF)C3)cc2)c1`: the IC50 in the experiment on MCF7 is > 1000 nM.
On Estrogen receptor [2], `CC(F)(F)c1cc(F)ccc1-c1sc2c(ccc3[nH]ncc32)c1Oc1ccc(OCCN2CC(CC#N)C2)cc1` displayed an EC50 of 0.4 nM. Moreover, the IC50 with MCF7 was determined as 2.4 nM.
For `FCC1CN(CCOc2ccc(Oc3c(-c4ccc(C(F)(F)F)cc4F)sc4c3ccc3[nH]ncc34)cc2)C1`, in the experiment with MCF7, the IC50 was determined as 148 nM.
Consider `CC(F)(F)c1cc(Cl)ccc1-c1sc2cc(C(=O)O)ccc2c1Oc1ccc(OCCN2CC(CF)C2)cc1`, for which, at Estrogen receptor [2], the midpoint of the response, the EC50, lay at 2.6 nM. In addition, the IC50 with MCF7 came out at 4.4 nM.
`Cc1cc(Cl)cc(C)c1-c1sc2c(ccc3[nH]ncc32)c1Oc1ccc(OCCN2CC(CF)C2)cc1`: in the experiment on MCF7, the IC50 is 29.5 nM.
Consider `CC(F)(F)c1cc(Cl)ccc1-c1sc2c(ccc3[nH]ncc32)c1Oc1ccc(S(=O)(=O)C2CN(CCCF)C2)cc1`, for which the half-maximal inhibitory concentration (IC50) in the experiment with MCF7 is 33.9 nM.
Take `CC(c1cc(F)ccc1-c1sc2c(ccc3[nH]ncc32)c1Oc1ccc(OC2CN(CCCF)C2)cc1)C(F)(F)F` (stereo not drawn): the response at Estrogen receptor [2] was half-maximal at 2.5 nM (EC50). Also, the IC50 with MCF7 was 2.2 nM.
With `FCC1CN(CCOc2ccc(Oc3c(-c4ccc(OC(F)(F)F)cc4F)sc4c3ccc3[nH]ncc34)cc2)C1`, the IC50 in the experiment with MCF7 amounted to 38.5 nM.
As for `CC(F)(F)c1cc(Cl)ccc1-c1sc2cc(C(=O)O)ccc2c1Oc1ccc(O[C@@H]2CCN(CCCF)C2)cc1`, on Estrogen receptor [2], the EC50 is 1 nM. The IC50 in the experiment on MCF7 was found to be 4.2 nM.
Consider `CC(F)(F)c1cc(F)ccc1-c1sc2c(ccc3[nH]ncc32)c1-c1ccc(OCCN2CC(CF)C2)cc1`, for which the IC50 in the experiment on MCF7 is > 1000 nM.
As for `CC(F)(F)c1cc(F)ccc1-c1sc2c(ccc3[nH]ncc32)c1Oc1ccc(/C=C/CN2CC(CF)C2)cc1`, in the experiment on MCF7, the half-inhibitory concentration (IC50) was found to be 7.9 nM.
Regarding `CC(F)(F)c1cc(F)ccc1-c1sc2c(ccc3[nH]ncc32)c1Oc1ccc(OC2CN(CCCF)C2)cc1F`, the IC50 in the experiment with MCF7 stood at 7.8 nM.

Usually IC50 stands for the point on the concentration scale where inhibition reaches its midpoint. The EC50 is the concentration giving half of the maximal effect. The low end stands for a more potent agent, the high end for a less potent agent.
